Measured values published in patent publication US10329309B2, “3-(3H-imidazo[4,5-B]pyridin-2-yl)-1H-pyrazolo[4,3-B]pyridines and therapeutic uses thereof” (Samumed, LLC, priority 2015, dated 2019).

Columns and labels:
[1] = test system: primary human fibroblasts derived from IPF patients (LL29 cells), α-smooth muscle actin (αSMA); assay: Inhibition of the fibrotic process: TGF-β1-treated primary human fibroblasts from IPF patients, αSMA staining; format: cell-based; conditions: Fibroblast, 96 h, 4 days; for EC50: LL29 fibroblasts from IPF patients, TGF-β1 20 ng/mL, inhibition of fibrotic process; for inhibition at 10 µM: LL29 fibroblasts, TGF-β1 treated, read-out: percent inhibition at 10 μM (given for EC50 of >10 μM)
In short: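 Compound dilutions from 10 μM down to […] are dispensed, LL29 cells added in F12 with 1% FBS, and TGF-β1 (20 ng/mL) follows after 1 h. After 4 days, live-cell αSMA positivity is measured by immunofluorescence and normalized to TGF-β1-treated wells to derive EC50.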

[2] = test system: primary human mesenchymal stem cells (hMSCs); assay: Induction of chondrogenesis in primary human mesenchymal stem cells (nodule imaging, Rhodamine B/Nile Red); format: cell-based; conditions: hMSC chondrogenesis; for Emax: TGF-β3 as positive control, read-out: Max. Activity as % TGF-β3 activity; for EC50: concentration required to induce 50% levels of chondrogenesis vs TGF-β3, read-out: Conc (nM) of 50% TGF-β3 activity
In short: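 hMSCs (passage 3–6) in incomplete chondrogenic induction medium were dosed at 2700–10 nM (96-well, 6-point) or 5000–2.2 nM (384-well, 8-point), 0.03% DMSO final, for 6 days at 37° C. Fixed nodules stained with Rhodamine B/Nile Red were imaged; nodule area normalized to DMSO wells gave EC50, maximum activity and dose at maximum, with TGF-β3 (10 ng/mL) as positive control.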

`CCNCc1cncc(-c2ccc3[nH]nc(-c4nc5c(-c6ccoc6)ccnc5[nH]4)c3n2)c1` [Compound 314, N-((5-(3-(7-(furan-3-yl)-3H-imidazo[4,5-b]pyridin-2-yl)-1H-pyrazolo[4,3-b]pyridin-5-yl)pyridin-3-yl)methyl)ethanamine] was tested, and the EC50 [1] was over 10000 nM, the inhibition at 10 µM [1] was 0% and the Emax [2] was 32%.
`CC(C)Nc1cncc(-c2ccc3[nH]nc(-c4nc5c(-c6ccoc6)ccnc5[nH]4)c3n2)c1` [Compound 320, 5-(3-(7-(furan-3-yl)-3H-imidazo[4,5-b]pyridin-2-yl)-1H-pyrazolo[4,3-b]pyridin-5-yl)-N-isopropylpyridin-3-amine] showed an EC50 [1] of 277 nM, an Emax [2] of 64% and an EC50 [2] of 100 nM.
`CCCCC(=O)Nc1cncc(-c2ccc3[nH]nc(-c4nc5c(-c6ccoc6)ccnc5[nH]4)c3n2)c1` [Compound 327, N-(5-(3-(7-(furan-3-yl)-3H-imidazo[4,5-b]pyridin-2-yl)-1H-pyrazolo[4,3-b]pyridin-5-yl)pyridin-3-yl)pentanamide] showed an EC50 [1] of 277 nM, an Emax [2] of 83% and an EC50 [2] of 10 nM.
With `CN(C)Cc1cncc(-c2ccc3[nH]nc(-c4nc5c(-c6cccs6)ccnc5[nH]4)c3n2)c1` [Compound 349, N,N-dimethyl-1-(5-(3-(7-(thiophen-2-yl)-3H-imidazo[4,5-b]pyridin-2-yl)-1H-pyrazolo[4,3-b]pyridin-5-yl)pyridin-3-yl)methanamine] the EC50 [1] was 1420 nM, the Emax [2] was 108% and the EC50 [2] was 30 nM.
`Cc1ccc(-c2ccnc3[nH]c(-c4n[nH]c5ccc(-c6cncc(N)c6)nc45)nc23)s1` [Compound 395, 5-(3-(7-(5-methylthiophen-2-yl)-3H-imidazo[4,5-b]pyridin-2-yl)-1H-pyrazolo[4,3-b]pyridin-5-yl)pyridin-3-amine] was tested, and the EC50 [1] was 97 nM, the Emax [2] was 118% and the EC50 [2] was 100 nM.
With `Cc1ccc(-c2ccnc3[nH]c(-c4n[nH]c5ccc(-c6cncc(NC(=O)C(C)C)c6)nc45)nc23)s1` [Compound 401, N-(5-(3-(7-(5-methylthiophen-2-yl)-3H-imidazo[4,5-b]pyridin-2-yl)-1H-pyrazolo[4,3-b]pyridin-5-yl)pyridin-3-yl)isobutyramide] the EC50 [1] was 158 nM, the Emax [2] was 66% and the EC50 [2] was 1670 nM.
`CC(C)Nc1cncc(-c2ccc3[nH]nc(-c4nc5c(-c6cc(F)cc(NCCN(C)C)c6)ccnc5[nH]4)c3n2)c1` [Compound 460, N^1-(3-fluoro-5-(2-(5-(5-(isopropylamino)pyridin-3-yl)-1H-pyrazolo[4,3-b]pyridin-3-yl)-3H-imidazo[4,5-b]pyridin-7-yl)phenyl)-N^2,N^2-dimethylethane-1,2-diamine] showed an EC50 [1] of 2450 nM, an Emax [2] of 63% and an EC50 [2] of 30 nM.
`Cc1ccncc1-c1ccc2[nH]nc(-c3nc4c(-c5cc(F)cc(CNS(C)(=O)=O)c5)ccnc4[nH]3)c2n1` [Compound 481, N-(3-fluoro-5-(2-(5-(4-methylpyridin-3-yl)-1H-pyrazolo[4,3-b]pyridin-3-yl)-3H-imidazo[4,5-b]pyridin-7-yl)benzyl)methanesulfonamide] gave an EC50 [1] of 5180 nM and an Emax [2] of 47%.
Compound `Fc1cccc(-c2ccnc3[nH]c(-c4n[nH]c5ccc(C6=CCNCC6)nc45)nc23)c1` [Compound 506, 3-(7-(3-fluorophenyl)-3H-imidazo[4,5-b]pyridin-2-yl)-5-(1,2,3,6-tetrahydropyridin-4-yl)-1H-pyrazolo[4,3-b]pyridine] has an EC50 [1] of over 10000 nM, an inhibition at 10 µM [1] of 0% and an Emax [2] of 47%.
For `Cc1ncc(-c2ccc3[nH]nc(-c4nc5c(-c6cccc(F)c6)ccnc5[nH]4)c3n2)n1C` [Compound 509, 5-(1,2-dimethyl-1H-imidazol-5-yl)-3-(7-(3-fluorophenyl)-3H-imidazo[4,5-b]pyridin-2-yl)-1H-pyrazolo[4,3-b]pyridine], the EC50 [1] was over 10000 nM, the inhibition at 10 µM [1] was 0% and the Emax [2] was 97%. For the same compound, the EC50 [2] was 10 nM.
`NC1CN(c2cncc(-c3ccc4[nH]nc(-c5nc6c(-c7cccc(F)c7)ccnc6[nH]5)c4n3)n2)C1` [Compound 510, 1-(6-(3-(7-(3-fluorophenyl)-3H-imidazo[4,5-b]pyridin-2-yl)-1H-pyrazolo[4,3-b]pyridin-5-yl)pyrazin-2-yl)azetidin-3-amine] gave an EC50 [1] of over 10000 nM, an inhibition at 10 µM [1] of 0% and an Emax [2] of 46%.
Work on `CN(C)CCOc1cncc(-c2ccc3[nH]nc(-c4nc5c(-c6cccc(F)c6)ccnc5[nH]4)c3n2)c1` [Compound 515, 2-((5-(3-(7-(3-fluorophenyl)-3H-imidazo[4,5-b]pyridin-2-yl)-1H-pyrazolo[4,3-b]pyridin-5-yl)pyridin-3-yl)oxy)-N,N-dimethylethan-1-amine] yielded an EC50 [1] of 2610 nM and an Emax [2] of 45%.
`COc1cncc(-c2ccc3[nH]nc(-c4nc5c(-c6cccc(F)c6)ccnc5[nH]4)c3n2)c1` [Compound 516, 3-(7-(3-fluorophenyl)-3H-imidazo[4,5-b]pyridin-2-yl)-5-(5-methoxypyridin-3-yl)-1H-pyrazolo[4,3-b]pyridine] gave an EC50 [1] of 1580 nM and an Emax [2] of 47%.
With `Oc1cncc(-c2ccc3[nH]nc(-c4nc5c(-c6cccc(F)c6)ccnc5[nH]4)c3n2)c1` [Compound 517, 5-(3-(7-(3-fluorophenyl)-3H-imidazo[4,5-b]pyridin-2-yl)-1H-pyrazolo[4,3-b]pyridin-5-yl)pyridin-3-ol] the EC50 [1] was 1150 nM, the Emax [2] was 59% and the EC50 [2] was 2 nM.
In the case of `Fc1cccc(-c2ccnc3[nH]c(-c4n[nH]c5ccc(-c6cnccn6)nc45)nc23)c1` [Compound 520, 3-(7-(3-fluorophenyl)-3H-imidazo[4,5-b]pyridin-2-yl)-5-(pyrazin-2-yl)-1H-pyrazolo[4,3-b]pyridine], the EC50 [1] is reported as 5330 nM, the Emax [2] is reported as 63% and the EC50 [2] is reported as 2 nM.
Work on `CN(C)CC(=O)Nc1cncc(-c2ccc3[nH]nc(-c4nc5c(-c6cccc(F)c6)ccnc5[nH]4)c3n2)c1` [Compound 969, 2-(dimethylamino)-N-(5-(3-(7-(3-fluorophenyl)-3H-imidazo[4,5-b]pyridin-2-yl)-1H-pyrazolo[4,3-b]pyridin-5-yl)pyridin-3-yl)acetamide] yielded an EC50 [1] of 4930 nM, an Emax [2] of 72% and an EC50 [2] of 7 nM.
Work on `COc1cccc(-c2ccnc3[nH]c(-c4n[nH]c5ccc(-c6cccnc6)nc45)nc23)c1` [Compound 994, 3-(7-(3-methoxyphenyl)-3H-imidazo[4,5-b]pyridin-2-yl)-5-(pyridin-3-yl)-1H-pyrazolo[4,3-b]pyridine] yielded an EC50 [1] of 590 nM, an Emax [2] of 50% and an EC50 [2] of 100 nM.
`COc1cccc(-c2ccnc3[nH]c(-c4n[nH]c5ccc(-c6cncc(NC(=O)Cc7ccccc7)c6)nc45)nc23)c1` [Compound 1000, N-(5-(3-(7-(3-methoxyphenyl)-3H-imidazo[4,5-b]pyridin-2-yl)-1H-pyrazolo[4,3-b]pyridin-5-yl)pyridin-3-yl)-2-phenylacetamide] was tested, and the EC50 [1] was over 10000 nM, the inhibition at 10 µM [1] was 23.4% and the Emax [2] was 46%.
`CC(C)CC(=O)Nc1cncc(-c2ccc3[nH]nc(-c4nc5c(-c6ccc(Cl)s6)ccnc5[nH]4)c3n2)c1` [Compound 1037, N-(5-(3-(7-(5-chlorothiophen-2-yl)-3H-imidazo[4,5-b]pyridin-2-yl)-1H-pyrazolo [4,3-b]pyridin-5-yl)pyridin-3-yl)-3-methylbutanamide] showed an EC50 [1] of 511 nM, an Emax [2] of 67% and an EC50 [2] of 10 nM.
With `CC(C)(C)C(=O)Nc1cncc(-c2ccc3[nH]nc(-c4nc5c(-c6ccc(Cl)s6)ccnc5[nH]4)c3n2)c1` [Compound 1043, N-(5-(3-(7-(5-chlorothiophen-2-yl)-3H-imidazo[4,5-b]pyridin-2-yl)-1H-pyrazolo [4,3-b]pyridin-5-yl)pyridin-3-yl)pivalamide] the EC50 [1] was 419 nM, the Emax [2] was 65% and the EC50 [2] was 30 nM.
`Clc1ccc(-c2ccnc3[nH]c(-c4n[nH]c5ccc(-c6cncc(CN7CCCC7)c6)nc45)nc23)s1` [Compound 1049, 3-(7-(5-chlorothiophen-2-yl)-3H-imidazo[4,5-b]pyridin-2-yl)-5-(5-(pyrrolidin-1-ylmethyl)pyridin-3-yl)-1H-pyrazolo[4,3-b]pyridine] gave an EC50 [1] of 681 nM, an Emax [2] of 74% and an EC50 [2] of 10 nM.
Work on `O=C(Nc1cncc(-c2ccc3[nH]nc(-c4nc5c(-c6ccc(Cl)s6)ccnc5[nH]4)c3n2)c1)C1CCC1` [Compound 1056, N-(5-(3-(7-(5-chlorothiophen-2-yl)-3H-imidazo[4,5-b]pyridin-2-yl)-1H-pyrazolo [4,3-b]pyridin-5-yl)pyridin-3-yl)cyclobutanecarboxamide] yielded an EC50 [1] of 284 nM, an Emax [2] of 102% and an EC50 [2] of 10 nM.
